This note sets out measurements from patent US11590139B2, “Substituted aminopurine compounds, compositions thereof, and methods of treatment therewith” (Signal Pharmaceuticals, LLC, priority 2014, dated 2023).

Structures are written as SMILES.

In one test the test system is Lox-IMVI melanoma cell line. Put plainly: Lox-IMVI anti-proliferative assay (growth inhibition, Cell Titer-Glo). It counts as cell-based, human. The settings on record: Homo sapiens; IC50 activity level in the cell-based Lox-IMVI anti-proliferative assay; read-out: Activity. Put shortly:
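First, compound was dispensed as a 10-point 3-fold series (0.5 nM–10 μM, duplicate). Then cells in RPMI + 10% FBS were added and grown 72 h at 37 °C with 0.2% DMSO. Finally, ATP luminescence was read and IC50 calculated versus DMSO control.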
For orientation: Cellular ATP, detected with luciferase, serves as a proxy for viable cell number.
In the case of `C[C@@H](CO)Nc1ncc2nc(Nc3c(Cl)cc(Cl)cc3Cl)n([C@H]3CC[C@@H](C(N)=O)CC3)c2n1` [Example 165, (1R,4s)-4-(2-((S)-1-hydroxypropan-2-ylamino)-8-(2,4,6-trichlorophenylamino)-9H-purin-9-yl)cyclohexanecarboxamide], the IC50 lay in the range of 250 to 500 nM. As to `N#Cc1cc(F)c(Nc2nc3cnc(NC4CCCC4)nc3n2[C@H]2CC[C@@H](C(N)=O)CC2)c(Cl)c1` [Example 369, (1s,4s)-4-(8-(2-chloro-4-cyano-6-fluorophenylamino)-2-(cyclopentylamino)-9H-purin-9-yl)cyclohexanecarboxamide], the IC50 was 250 to 500 nM. The same measure, in the same setting: for `NC(=O)[C@H]1CC[C@@H](n2c(Nc3c(F)cc(F)cc3Cl)nc3cnc(NC4CC5(COC5)C4)nc32)CC1` [Example 175, (1s,4s)-4-(2-(2-oxaspiro[3.3]heptan-6-ylamino)-8-(2-chloro-4,6-difluorophenylamino)-9H-purin-9-yl)cyclohexanecarboxamide] the value was 500 to 1000 nM. The same measure, in the same setting: for `NC(=O)[C@H]1CC[C@@H](n2c(Nc3c(F)ccc(Cl)c3F)nc3cnc(NC4CC(F)(F)C4)nc32)CC1` [Example 234, (1s,4s)-4-(8-(3-chloro-2,6-difluorophenylamino)-2-(3,3-difluorocyclobutylamino)-9H-purin-9-yl)cyclohexanecarboxamide] the value was greater than 1000 nM; for `CC(C)(C)OC(=O)N1CCC[C@@H](Nc2ncc3nc(Nc4c(F)cc(Cl)cc4F)n([C@H]4CC[C@@H](C(N)=O)CC4)c3n2)C1` [Example 162, (R)-tert-butyl 3-(9-((1s,4S)-4-carbamoylcyclohexyl)-8-(4-chloro-2,6-difluorophenylamino)-9H-purin-2-ylamino)piperidine-1-carboxylate], greater than 1000 nM. Still for that read-out and setting: for `NC(=O)[C@H]1CC[C@@H](n2c(Nc3c(F)cc(Cl)cc3F)nc3cnc(N[C@@H]4COC[C@H]4O)nc32)CC1` [Example 316, (1S,4s)-4-(8-(4-chloro-2,6-difluorophenylamino)-2-((3R,4S)-4-hydroxytetrahydrofuran-3-ylamino)-9H-purin-9-yl)cyclohexanecarboxamide] the value was greater than 1000 nM; for `NC(=O)[C@H]1CC[C@@H](n2c(Nc3c(Cl)cc(Cl)cc3Cl)nc3cnc(N[C@@H]4CC[C@H](O)C4)nc32)CC1` [Example 333, (1S,4s)-4-(2-((1R,3S)-3-hydroxycyclopentylamino)-8-(2,4,6-trichlorophenylamino)-9H-purin-9-yl)cyclohexanecarboxamide], 500 to 1000 nM; for `NC(=O)[C@H]1CC[C@@H](n2c(Nc3c(F)cc(F)cc3F)nc3cnc(NC4COC4)nc32)CC1` [Example 55, (1s,4s)-4-(2-(oxetan-3-ylamino)-8-(2,4,6-trifluorophenylamino)-9H-purin-9-yl)cyclohexanecarboxamide], greater than 1000 nM. On to `NC(=O)[C@H]1CC[C@@H](n2c(Nc3c(F)cccc3F)nc3cnc(N[C@H]4CCOC[C@@H]4F)nc32)CC1` [Example 247, (1R,4s)-4-(8-(2,6-difluorophenylamino)-2-((3R,4S)-3-fluorotetrahydro-2H-pyran-4-ylamino)-9H-purin-9-yl)cyclohexanecarboxamide], for which the IC50 is greater than 1000 nM. Same read-out and setting: with `NC(=O)[C@H]1CC[C@@H](n2c(Nc3c(Cl)cc(Cl)cc3Cl)nc3cnc(NC4CC5(COC5)C4)nc32)CC1` [Example 177, (1s,4s)-4-(2-(2-oxaspiro[3.3]heptan-6-ylamino)-8-(2,4,6-trichlorophenylamino)-9H-purin-9-yl)cyclohexanecarboxamide] the figure was 250 to 500 nM; with `NC(=O)[C@H]1CC[C@@H](n2c(Nc3cc(Cl)c(Cl)cc3Cl)nc3cnc(NC4CCOCC4)nc32)CC1` [Example 65, (1s,4s)-4-(2-(tetrahydro-2H-pyran-4-ylamino)-8-(2,4,5-trichlorophenylamino)-9H-purin-9-yl)cyclohexanecarboxamide], greater than 1000 nM. Still for that read-out and setting: with `COc1ccc(Nc2nc3cnc(NC4CCOCC4)nc3n2[C@H]2CC[C@@H](C(N)=O)CC2)c(F)c1F` [Example 380, (1s,4s)-4-(8-(2,3-difluoro-4-methoxyphenylamino)-2-(tetrahydro-2H-pyran-4-ylamino)-9H-purin-9-yl)cyclohexanecarboxamide] the figure was greater than 1000 nM; with `NC(=O)[C@H]1CC[C@@H](n2c(Nc3ccc(Cl)c(F)c3F)nc3cnc(NC4CCOCC4)nc32)CC1` [Example 72, (1s,4s)-4-(8-(4-chloro-2,3-difluorophenylamino)-2-(tetrahydro-2H-pyran-4-ylamino)-9H-purin-9-yl)cyclohexanecarboxamide], 250 to 500 nM.

The test is the same for the next values; noted with them: Homo sapiens; Lox-IMVI anti-proliferative assay, IC50 activity level; read-out: Activity.
Take `C[C@]1(C(N)=O)CC[C@H](n2c(Nc3c(F)cc(Cl)cc3F)nc3cnc(NC4CCOCC4)nc32)CC1` [Example 473, (1r,4r)-4-(8-(4-chloro-2,6-difluorophenylamino)-2-(tetrahydro-2H-pyran-4-ylamino)-9H-purin-9-yl)-1-methylcyclohexanecarboxamide]: the IC50 is greater than 1000 nM. Regarding `C[C@@H](CO)Nc1ncc2nc(Nc3c(F)cc(Cl)cc3F)n([C@H]3CC[C@@](C)(C(N)=O)CC3)c2n1` [Example 550, (1R,4s)-4-(8-(4-chloro-2,6-difluorophenylamino)-2-((S)-1-hydroxypropan-2-ylamino)-9H-purin-9-yl)-1-methylcyclohexanecarboxamide], the IC50 was less than 250 nM. Consider `NC(=O)[C@H]1CC[C@@H](n2c(Nc3ccc(Cl)c(F)c3F)nc3cnc(N[C@@H]4CCCC[C@H](O)C4)nc32)CC1` [Example 440, (1S,4s)-4-(8-(4-chloro-2,3-difluorophenylamino)-2-((1R,3S)-3-hydroxycycloheptylamino)-9H-purin-9-yl)cyclohexanecarboxamide], for which the IC50 was greater than 1000 nM. Turning to `C[C@@H]1COCC[C@H]1Nc1ncc2nc(Nc3c(F)cc(Cl)cc3F)n([C@H]3CC[C@@H](C(N)=O)CC3)c2n1` [Example 532, (1S,4s)-4-(8-(4-chloro-2,6-difluorophenylamino)-2-((3S,4R)-3-methyltetrahydro-2H-pyran-4-ylamino)-9H-purin-9-yl)cyclohexanecarboxamide], the IC50 was in the range of 250 to 500 nM. Same read-out and setting: for `NC(=O)[C@H]1CC[C@@H](n2c(Nc3c(Cl)cc(F)cc3Cl)nc3cnc(NCC(F)(F)CO)nc32)CC1` [Example 452, (1s,4s)-4-(8-(2,6-dichloro-4-fluorophenylamino)-2-(2,2-difluoro-3-hydroxypropylamino)-9H-purin-9-yl)cyclohexanecarboxamide] the value was greater than 1000 nM; for `NC(=O)[C@H]1CC[C@@H](n2c(Nc3cc(F)c(Cl)cc3F)nc3cnc(N[C@H]4CCC[C@H](O)C4)nc32)CC1` [Example 465, (1R,4s)-4-(8-(4-chloro-2,5-difluorophenylamino)-2-((1S,3S)-3-hydroxycyclohexylamino)-9H-purin-9-yl)cyclohexanecarboxamide], greater than 1000 nM. Turning to `N#Cc1cc(F)c(Nc2nc3cnc(NC4CC5(COC5)C4)nc3n2[C@H]2CC[C@@H](C(N)=O)CC2)c(Cl)c1` [Example 572, (1s,4s)-4-(2-(2-oxaspiro[3.3]heptan-6-ylamino)-8-(2-chloro-4-cyano-6-fluorophenylamino)-9H-purin-9-yl)cyclohexanecarboxamide], the IC50 was 500 to 1000 nM. For `C[C@]1(C(N)=O)CC[C@@H](n2c(Nc3c(F)cc(F)cc3Cl)nc3cnc(NC4CC(F)(F)C4)nc32)CC1` [Example 579, (1s,4s)-4-(8-(2-chloro-4,6-difluorophenylamino)-2-(3,3-difluorocyclobutylamino)-9H-purin-9-yl)-1-methylcyclohexanecarboxamide], the IC50 is less than 250 nM. Same read-out and setting: with `C[C@]1(C(N)=O)CC[C@@H](n2c(Nc3c(F)cc(F)cc3Cl)nc3cnc(N[C@@H]4CCC[C@H](O)C4)nc32)CC1` [Example 576, (1S,4s)-4-(8-(2-chloro-4,6-difluorophenylamino)-2-((1R,3S)-3-hydroxycyclohexylamino)-9H-purin-9-yl)-1-methylcyclohexanecarboxamide] the figure was 250 to 500 nM.

The test is the same for the next values; noted with them: Homo sapiens; Lox-IMVI melanoma cell line, anti-proliferative assay; read-out: Activity (IC50 activity level).
`N#Cc1cc(F)c(Nc2nc3cnc(N[C@@H]4CCC(F)(F)C4)nc3n2[C@H]2CC[C@@H](C(N)=O)CC2)c(F)c1` [Example 697, (1S,4s)-4-(8-(4-cyano-2,6-difluorophenylamino)-2-((R)-3,3-difluorocyclopentylamino)-9H-purin-9-yl)cyclohexanecarboxamide]: the IC50 lay in the range of 250 to 500 nM. Still for that read-out and setting: for `C[C@@H]1COCC[C@H]1Nc1ncc2nc(Nc3c(Cl)cc(Cl)cc3Cl)n([C@H]3CC[C@@](C)(C(N)=O)CC3)c2n1` [Example 727, (1S,4s)-1-methyl-4-(2-((3S,4R)-3-methyltetrahydro-2H-pyran-4-ylamino)-8-(2,4,6-trichlorophenylamino)-9H-purin-9-yl)cyclohexanecarboxamide] the value was less than 250 nM. Same read-out and setting: for `N#Cc1cc(Cl)c(Nc2nc3cnc(N[C@@H]4CCOC[C@H]4F)nc3n2[C@H]2CC[C@@H](C(N)=O)CC2)c(Cl)c1` [Example 762, (1S,4s)-4-(8-(2,6-dichloro-4-cyanophenylamino)-2-((3S,4R)-3-fluorotetrahydro-2H-pyran-4-ylamino)-9H-purin-9-yl)cyclohexanecarboxamide] the value was less than 250 nM; for `CCN1CCC[C@@H](Nc2ncc3nc(Nc4c(Cl)cc(C#N)cc4Cl)n([C@H]4CC[C@@H](C(N)=O)CC4)c3n2)C1` [Example 733, (1S,4s)-4-(8-(2,6-dichloro-4-cyanophenylamino)-2-((R)-1-ethylpiperidin-3-ylamino)-9H-purin-9-yl)cyclohexanecarboxamide], greater than 1000 nM; for `CS(=O)(=O)C1CC(Nc2ncc3nc(Nc4c(F)cc(Cl)cc4Cl)n([C@H]4CC[C@@H](C(N)=O)CC4)c3n2)C1` (stereo partly drawn) [Example 731, (1s,4s)-4-(8-(2,4-dichloro-6-fluorophenylamino)-2-(3-(methylsulfonyl)cyclobutylamino)-9H-purin-9-yl)cyclohexanecarboxamide], greater than 1000 nM.
